Reference: ChEMBL document CHEMBL3612011, “Synthesis of new opioid derivatives with a propellane skeleton and their pharmacologies: Part 5, novel pentacyclic propellane derivatives with a 6-amide side chain” (Bioorg Med Chem, 2015)
Activity calls are given as the source filed them. The calls are words filed in the database; no cut-off is given here.

Assays:
[1] = biological target: Mu-type opioid receptor (Cavia porcellus, UniProt P97266); test: Displacement of [3H]DAMGO from MOR in guinea pig cerebellum membranes; format: cell membranes, Membrane
Chain of Mu-type opioid receptor (P97266 whole entry): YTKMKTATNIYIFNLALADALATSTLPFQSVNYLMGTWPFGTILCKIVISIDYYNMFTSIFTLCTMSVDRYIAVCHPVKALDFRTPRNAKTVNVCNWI

[2] = biological target: Delta-type opioid receptor (Mus musculus, UniProt P32300); test: Displacement of [3H]DPDPE from DOR in mouse whole brain membranes without cerebellum; format: cell membranes, Membrane
Chain of Delta-type opioid receptor (P32300 whole entry): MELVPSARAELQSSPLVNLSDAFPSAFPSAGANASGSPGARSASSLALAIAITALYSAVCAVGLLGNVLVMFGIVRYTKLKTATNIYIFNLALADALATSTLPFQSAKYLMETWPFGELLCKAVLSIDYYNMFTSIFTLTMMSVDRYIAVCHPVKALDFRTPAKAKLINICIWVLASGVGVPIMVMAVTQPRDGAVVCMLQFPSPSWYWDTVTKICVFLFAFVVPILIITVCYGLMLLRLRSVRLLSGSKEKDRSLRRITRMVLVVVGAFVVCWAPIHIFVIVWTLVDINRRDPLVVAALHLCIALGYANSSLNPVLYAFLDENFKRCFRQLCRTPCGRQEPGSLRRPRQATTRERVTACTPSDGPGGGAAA

[3] = biological target: Kappa-type opioid receptor (Mus musculus, UniProt P33534); test: Displacement of [3H]U69,593 from KOR in mouse whole brain membranes without cerebellum; format: cell membranes, Membrane
Chain of Kappa-type opioid receptor (Mus musculus, UniProt P33534) (P33534 whole entry): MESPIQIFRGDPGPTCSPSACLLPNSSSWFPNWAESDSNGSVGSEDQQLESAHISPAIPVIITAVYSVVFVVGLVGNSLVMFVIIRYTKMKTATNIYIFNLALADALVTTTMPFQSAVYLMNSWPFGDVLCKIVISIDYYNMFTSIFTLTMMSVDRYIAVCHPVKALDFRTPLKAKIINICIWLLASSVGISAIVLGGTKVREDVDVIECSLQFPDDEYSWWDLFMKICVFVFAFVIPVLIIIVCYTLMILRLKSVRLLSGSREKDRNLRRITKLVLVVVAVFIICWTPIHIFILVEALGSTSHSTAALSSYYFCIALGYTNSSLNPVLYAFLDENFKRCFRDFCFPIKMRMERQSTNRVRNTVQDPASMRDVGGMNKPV

[4] = Selectivity index, ratio of Ki for MOR in guinea pig cerebellum membranes to Ki for KOR in mouse whole brain membranes without cerebellum; format: cell membranes
[5] = species on record: Mus musculus; test: Selectivity index, ratio of Ki for DOR in mouse whole brain membranes without cerebellum to Ki for KOR in mouse whole brain membranes without cerebellum; format: cell membranes
[6] = tested on: Mus musculus; test: Antinociceptive activity in ICR mouse assessed as reduction in acetic acid-induced abdominal writhing dosed subcutaneously 15 mins before acetic acid challenge; format: functional; settings: Abdomen; for ED50: sc
[7] = species on record: Mus musculus; test: Induction of sedation in ICR mouse by spontaneous locomotor activity test; format: organism-based; settings: in vivo
[8] = biological target: T1, Kappa-type opioid receptor (Homo sapiens, UniProt P41145); test: Agonist activity at human KOR expressed in CHO cell membranes by [35S]GTPgammaS binding assay; format: functional
T1 sequence (P41145 whole entry): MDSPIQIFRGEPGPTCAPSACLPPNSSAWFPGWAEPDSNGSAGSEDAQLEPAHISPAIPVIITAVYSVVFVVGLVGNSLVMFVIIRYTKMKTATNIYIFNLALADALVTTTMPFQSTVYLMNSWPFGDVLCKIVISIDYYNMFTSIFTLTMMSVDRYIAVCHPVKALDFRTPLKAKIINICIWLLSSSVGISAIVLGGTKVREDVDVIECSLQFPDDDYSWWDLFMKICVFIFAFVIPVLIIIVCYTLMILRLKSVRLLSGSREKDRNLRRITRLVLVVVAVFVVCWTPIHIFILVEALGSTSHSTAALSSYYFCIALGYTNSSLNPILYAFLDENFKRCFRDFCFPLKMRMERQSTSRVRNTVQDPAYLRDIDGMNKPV

[9] = biological target: T1, Kappa-type opioid receptor; test: Agonist activity at human KOR expressed in CHO cell membranes by [35S]GTPgammaS binding assay relative to U69,593; format: functional
[10] = Therapeutic index, ratio of ED50 for induction of sedation in ICR mouse by spontaneous locomotor activity test to ED50 for antinociceptive activity in ICR mouse by acetic acid abdominal constriction test; format: organism-based, Abdomen; settings: in vivo, read-out: Ratio ED50
[11] = tested on: Mus musculus; test: Antinociceptive activity in ICR mouse assessed as reduction in acetic acid-induced abdominal writhing dosed subcutaneously 15 mins before acetic acid challenge and treated 24 hrs after 10 mg/kg, sc KOR antagonist nor-Binaltorphimin dosing; format: functional, organism-based; settings: Abdomen

SMILES: CN(C(=O)c1ccccc1)[C@@H]1C[C@@]23CCN(CC4CC4)[C@H]4C=C[C@@H]1C[C@]42Cc1ccc(O)cc13
- Ki [1]: 2.7 nM
- Ki [2]: 2.23 nM
- Ki [3]: 4.46 nM
- Ratio Ki [4]: 0.61
- Ratio Ki [5]: 0.5

SMILES: CN(C(=O)CCc1ccccc1)[C@H]1C[C@@]23CCN(CC4CC4)[C@H]4CCC1C[C@]42Cc1ccc(O)cc13 (single isomer, unassigned)
- Ki [1]: 11.5 nM
- Ki [2]: 32.4 nM
- Ki [3]: 11.9 nM
- Ratio Ki [4]: 0.966
- Ratio Ki [5]: 2.72

SMILES: CN(C(=O)Cc1ccccc1)[C@H]1C[C@@]23CCN(CC4CC4)[C@H]4CCC1C[C@]42Cc1ccc(O)cc13 (single isomer, unassigned)
- Ki [1]: 59.6 nM
- Ki [2]: 15 nM
- Ki [3]: 11 nM
- Ratio Ki [4]: 5.42
- Ratio Ki [5]: 1.36

SMILES: CN(C(=O)c1ccccc1)[C@H]1C[C@@]23CCN(CC4CC4)[C@H]4CCC1C[C@]42Cc1ccc(O)cc13 (single isomer, unassigned)
- Ki [1]: 56 nM
- Ki [2]: 1.27 nM
- Ki [3]: 13.8 nM
- Ratio Ki [4]: 4.06
- Ratio Ki [5]: 0.092

SMILES: CN(C(=O)CCc1ccccc1)[C@H]1C[C@@]23CCN(CC4CC4)[C@H]4C=C[C@@H]1C[C@]42Cc1ccc(O)cc13
- Ki [1]: 4.36 nM
- Ki [2]: 10.7 nM
- Ki [3]: 1.86 nM
- Ratio Ki [4]: 2.34
- Ratio Ki [5]: 5.75

SMILES: CN(C(=O)CCc1ccccc1)[C@@H]1C[C@@]23CCN(CC4CC4)[C@H]4C=C[C@@H]1C[C@]42Cc1ccc(O)cc13
- Ki [1]: 0.51 nM
- Ki [2]: 3.52 nM
- Ki [3]: 0.47 nM
- Ratio Ki [4]: 1.09
- Ratio Ki [5]: 7.49

SMILES: CN(C(=O)CCc1ccccc1)[C@@H]1C[C@@]23CCN(CC4CC4)[C@H]4CCC1C[C@]42Cc1ccc(O)cc13 (single isomer, unassigned)
- Ki [1]: 0.229 nM
- Ki [2]: 1.15 nM
- Ki [3]: 0.113 nM
- Ratio Ki [4]: 2.03
- Ratio Ki [5]: 10.2

SMILES: CN(C(=O)/C=C/c1ccoc1)[C@@H]1C[C@@]23CCN(CC4CC4)[C@H]4C=C[C@@H]1C[C@]42Cc1ccc(O)cc13
- Ki [1]: 0.57 nM
- Ki [2]: 3.98 nM
- Ki [3]: 0.23 nM
- Ratio Ki [4]: 2.48
- Ratio Ki [5]: 17.3

SMILES: CN(C(=O)/C=C/c1ccoc1)[C@@H]1CC[C@@]2(O)[C@H]3Cc4ccc(O)c5c4[C@@]2(CCN3CC2CC2)[C@H]1O5.Cl [NALFURAFINE HYDROCHLORIDE]
- ED50 [6]: 0.00622 mg/kg
- ED50 [7]: 0.0344 mg/kg

SMILES: CN(C(=O)/C=C/c1ccoc1)[C@@H]1C[C@@]23CCN(CC4CC4)[C@H]4CC[C@@H]1C[C@]42Cc1ccc(O)cc13
- Ki [1]: 0.232 nM
- Ki [2]: 0.182 nM
- Ki [3]: 0.204 nM
- Ratio Ki [4]: 1.14
- Ratio Ki [5]: 0.89

SMILES: CN(C(=O)Cc1ccccc1)[C@@H]1C[C@@]23CCN(CC4CC4)[C@H]4CCC1C[C@]42Cc1ccc(O)cc13 (single isomer, unassigned)
- Ki [1]: 0.197 nM
- Ki [2]: 1.19 nM
- Ki [3]: 0.136 nM
- Ratio Ki [4]: 1.45
- Ratio Ki [5]: 8.75

SMILES: CN(C(=O)c1ccccc1)[C@H]1C[C@@]23CCN(CC4CC4)[C@H]4C=C[C@@H]1C[C@]42Cc1ccc(O)cc13
- Ki [1]: 47.6 nM
- Ki [2]: 6.46 nM
- Ki [3]: 13.1 nM
- Ratio Ki [4]: 3.63
- Ratio Ki [5]: 0.493

SMILES: CN(C(=O)c1ccccc1)[C@@H]1C[C@@]23CCN(CC4CC4)[C@H]4CCC1C[C@]42Cc1ccc(O)cc13 (single isomer, unassigned)
- Ki [1]: 0.28 nM
- Ki [2]: 3.65 nM
- Ki [3]: 0.543 nM
- Ratio Ki [4]: 0.516
- Ratio Ki [5]: 6.72

SMILES: CN(C(=O)/C=C/c1ccoc1)[C@H]1C[C@@]23CCN(CC4CC4)[C@H]4CC[C@@H]1C[C@]42Cc1ccc(O)cc13
- Ki [1]: 47.9 nM
- Ki [2]: 19.1 nM
- Ki [3]: 8.36 nM
- Ratio Ki [4]: 5.73
- Ratio Ki [5]: 2.28

SMILES: CN(C(=O)/C=C/c1ccoc1)[C@H]1C[C@@]23CCN(CC4CC4)[C@H]4C=C[C@@H]1C[C@]42Cc1ccc(O)cc13.Cl
- Ki [1]: 13.9 nM
- Ki [2]: 14.2 nM
- Ki [3]: 0.82 nM
- Ratio Ki [4]: 17
- Ratio Ki [5]: 17.3
- EC50 [8]: 11.8 nM
- Emax [9]: 108%
- inhibition [6]: Dose-dependent effect
- ED50 [6]: 0.589 mg/kg
- ED50 [7]: 7.74 mg/kg
- selectivity ratio [10]: 13.1
- inhibition [11]: inactive

SMILES: CN(C(=O)Cc1ccccc1)[C@H]1C[C@@]23CCN(CC4CC4)[C@H]4C=C[C@@H]1C[C@]42Cc1ccc(O)cc13
- Ki [1]: 12.2 nM
- Ki [2]: 4.5 nM
- Ki [3]: 1.73 nM
- Ratio Ki [4]: 7.05
- Ratio Ki [5]: 2.6

SMILES: CN(C(=O)Cc1ccccc1)[C@@H]1C[C@@]23CCN(CC4CC4)[C@H]4C=C[C@@H]1C[C@]42Cc1ccc(O)cc13
- Ki [1]: 0.42 nM
- Ki [2]: 1.66 nM
- Ki [3]: 0.24 nM
- Ratio Ki [4]: 1.75
- Ratio Ki [5]: 6.92
